Assay results: the supplement of paper PMC12076712

What was measured:
Assay in all cases: pIC50, kinobeads binding competition
EPHB4 = target: T1, EPHB4 (UniProt P54760); settings: cell material: Lysate mix
T1 sequence (whole entry): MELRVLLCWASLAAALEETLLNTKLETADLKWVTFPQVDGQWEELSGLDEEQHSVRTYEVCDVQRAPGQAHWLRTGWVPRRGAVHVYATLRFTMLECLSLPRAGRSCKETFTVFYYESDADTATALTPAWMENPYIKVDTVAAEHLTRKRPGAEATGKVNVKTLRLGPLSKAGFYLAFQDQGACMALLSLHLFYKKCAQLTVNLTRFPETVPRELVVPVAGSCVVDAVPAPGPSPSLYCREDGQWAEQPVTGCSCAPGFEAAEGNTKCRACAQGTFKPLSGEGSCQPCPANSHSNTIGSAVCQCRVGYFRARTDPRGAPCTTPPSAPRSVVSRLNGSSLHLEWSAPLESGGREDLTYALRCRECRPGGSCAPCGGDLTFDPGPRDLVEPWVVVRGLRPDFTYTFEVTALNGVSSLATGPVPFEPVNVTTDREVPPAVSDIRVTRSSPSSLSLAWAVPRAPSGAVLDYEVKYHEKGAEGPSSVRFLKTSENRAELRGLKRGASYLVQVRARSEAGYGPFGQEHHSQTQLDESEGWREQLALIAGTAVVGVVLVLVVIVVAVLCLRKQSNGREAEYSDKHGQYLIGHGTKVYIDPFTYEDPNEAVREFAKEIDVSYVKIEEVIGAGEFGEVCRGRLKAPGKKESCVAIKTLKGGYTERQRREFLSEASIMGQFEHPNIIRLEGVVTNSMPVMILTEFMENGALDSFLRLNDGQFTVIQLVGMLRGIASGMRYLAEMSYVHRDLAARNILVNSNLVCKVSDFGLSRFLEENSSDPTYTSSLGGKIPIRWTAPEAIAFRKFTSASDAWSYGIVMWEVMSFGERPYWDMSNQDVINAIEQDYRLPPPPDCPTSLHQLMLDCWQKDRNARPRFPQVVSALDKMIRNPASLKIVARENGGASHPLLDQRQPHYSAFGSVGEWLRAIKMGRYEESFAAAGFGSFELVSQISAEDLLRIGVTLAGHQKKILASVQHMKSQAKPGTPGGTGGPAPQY
In short: (§1)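 Fold changes relative to vehicle, from biological duplicates, were fitted with logistic dose-response models in the R drc package to give pIC50. These fold changes came from TMT10 LC-MS/MS quantification of digested Kinobeads-bound proteins. Compound was applied at nine concentrations (top 30 μM) either to live Jurkat cells in 1:4 steps for 60 min at 37 °C before lysis, or to Jurkat lysate or a 1:1:1:1 HEK293/K-562/HepG2/placenta lysate mix in 1:5 steps for 60 min at 4 °C.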

UniProt Q8N4C8 = target: UniProt Q8N4C8
In short: as §1

UniProt P49840 = target: UniProt P49840
In short: as §1

MAPK11 = MAPK11 (UniProt Q15759)
In short: as §1

FGFR4 = FGFR4 (UniProt P22455); settings: cell material: Lysate mix
In short: as §1

UniProt P27448 = target: UniProt P27448
In short: as §1

FGFR1 = FGFR1 (UniProt P11362)
In short: as §1

TGFBR1 = target: T2, TGFBR1 (UniProt P36897)
T2 sequence (whole entry): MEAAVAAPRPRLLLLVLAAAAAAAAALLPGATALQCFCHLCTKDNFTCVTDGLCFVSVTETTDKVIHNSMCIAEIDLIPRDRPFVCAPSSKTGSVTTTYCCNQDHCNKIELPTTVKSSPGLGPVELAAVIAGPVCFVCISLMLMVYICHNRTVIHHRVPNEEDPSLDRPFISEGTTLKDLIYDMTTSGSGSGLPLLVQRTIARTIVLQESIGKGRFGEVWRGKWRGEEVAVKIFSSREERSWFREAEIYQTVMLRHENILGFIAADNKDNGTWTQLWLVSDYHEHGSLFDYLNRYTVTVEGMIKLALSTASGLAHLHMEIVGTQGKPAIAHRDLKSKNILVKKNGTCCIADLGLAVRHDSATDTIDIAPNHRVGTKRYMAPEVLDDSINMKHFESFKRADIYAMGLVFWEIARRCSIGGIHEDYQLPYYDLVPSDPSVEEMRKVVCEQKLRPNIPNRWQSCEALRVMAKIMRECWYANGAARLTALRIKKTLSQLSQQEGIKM
In short: as §1

PAK4 = PAK4 (UniProt O96013)
In short: as §1

MAST3 = MAST3 (UniProt O60307)
In short: as §1

HIPK1 = HIPK1 (UniProt Q86Z02)
In short: as §1

UniProt Q8NI60 = target: UniProt Q8NI60
In short: as §1

UniProt Q13043 = target: T3, UniProt Q13043
T3 sequence (whole entry): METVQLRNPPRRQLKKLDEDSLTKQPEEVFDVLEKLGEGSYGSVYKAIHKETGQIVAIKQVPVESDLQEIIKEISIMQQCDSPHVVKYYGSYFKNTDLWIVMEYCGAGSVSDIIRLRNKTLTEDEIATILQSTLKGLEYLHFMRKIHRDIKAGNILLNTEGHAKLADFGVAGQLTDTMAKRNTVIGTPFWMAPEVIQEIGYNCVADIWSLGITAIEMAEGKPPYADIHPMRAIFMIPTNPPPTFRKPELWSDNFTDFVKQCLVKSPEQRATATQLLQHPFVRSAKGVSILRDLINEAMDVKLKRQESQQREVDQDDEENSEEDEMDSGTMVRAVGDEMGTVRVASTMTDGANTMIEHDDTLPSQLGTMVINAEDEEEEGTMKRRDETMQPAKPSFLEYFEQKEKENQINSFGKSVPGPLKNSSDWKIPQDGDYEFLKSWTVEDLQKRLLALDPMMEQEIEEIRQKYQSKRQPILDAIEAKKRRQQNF
In short: as §1

HIPK1, sequence (Q86Z02 whole entry, looked up): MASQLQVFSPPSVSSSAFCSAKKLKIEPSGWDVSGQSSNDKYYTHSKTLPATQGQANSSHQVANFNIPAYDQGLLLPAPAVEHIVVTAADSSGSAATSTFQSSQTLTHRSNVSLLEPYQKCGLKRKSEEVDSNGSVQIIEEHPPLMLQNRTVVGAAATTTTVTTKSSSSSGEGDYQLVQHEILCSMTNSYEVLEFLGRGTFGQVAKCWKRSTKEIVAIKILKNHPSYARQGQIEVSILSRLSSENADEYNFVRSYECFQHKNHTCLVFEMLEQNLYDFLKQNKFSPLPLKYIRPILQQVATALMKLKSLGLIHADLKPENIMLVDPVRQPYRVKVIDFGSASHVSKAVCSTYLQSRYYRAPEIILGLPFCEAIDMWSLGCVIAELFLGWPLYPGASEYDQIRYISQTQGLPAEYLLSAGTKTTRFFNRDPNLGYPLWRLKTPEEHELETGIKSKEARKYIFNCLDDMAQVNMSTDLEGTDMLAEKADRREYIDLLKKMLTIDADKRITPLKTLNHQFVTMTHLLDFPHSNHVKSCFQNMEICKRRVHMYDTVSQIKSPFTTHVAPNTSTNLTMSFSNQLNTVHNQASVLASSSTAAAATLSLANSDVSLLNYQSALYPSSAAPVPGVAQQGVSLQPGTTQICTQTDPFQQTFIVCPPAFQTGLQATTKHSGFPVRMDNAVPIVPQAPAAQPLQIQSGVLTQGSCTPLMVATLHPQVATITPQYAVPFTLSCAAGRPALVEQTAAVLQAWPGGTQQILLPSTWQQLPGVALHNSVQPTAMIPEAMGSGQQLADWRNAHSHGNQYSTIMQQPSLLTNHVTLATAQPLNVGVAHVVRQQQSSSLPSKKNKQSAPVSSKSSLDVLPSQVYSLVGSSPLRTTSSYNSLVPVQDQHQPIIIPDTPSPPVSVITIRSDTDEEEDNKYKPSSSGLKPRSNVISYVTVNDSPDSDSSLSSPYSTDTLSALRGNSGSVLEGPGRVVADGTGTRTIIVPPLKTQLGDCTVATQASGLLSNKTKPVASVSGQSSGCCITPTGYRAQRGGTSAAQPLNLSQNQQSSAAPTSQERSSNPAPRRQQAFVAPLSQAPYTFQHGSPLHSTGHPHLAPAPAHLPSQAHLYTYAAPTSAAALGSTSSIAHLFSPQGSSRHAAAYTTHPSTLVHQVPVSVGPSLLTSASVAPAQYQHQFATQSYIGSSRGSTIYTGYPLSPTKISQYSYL
UniProt P49840, sequence (P49840 whole entry, looked up): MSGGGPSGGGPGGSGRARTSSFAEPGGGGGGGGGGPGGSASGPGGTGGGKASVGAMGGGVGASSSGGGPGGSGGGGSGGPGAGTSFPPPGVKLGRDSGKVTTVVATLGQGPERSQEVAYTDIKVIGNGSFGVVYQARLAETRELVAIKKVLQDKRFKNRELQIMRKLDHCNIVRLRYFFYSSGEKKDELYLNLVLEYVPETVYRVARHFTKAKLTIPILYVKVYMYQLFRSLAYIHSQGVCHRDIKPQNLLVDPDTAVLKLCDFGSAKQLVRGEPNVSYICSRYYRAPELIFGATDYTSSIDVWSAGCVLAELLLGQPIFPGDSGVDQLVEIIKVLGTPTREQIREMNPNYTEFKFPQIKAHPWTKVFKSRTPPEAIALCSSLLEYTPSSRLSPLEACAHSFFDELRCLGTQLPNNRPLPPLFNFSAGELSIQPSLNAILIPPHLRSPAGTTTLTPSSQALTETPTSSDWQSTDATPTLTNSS
FGFR1, sequence (P11362 whole entry, looked up): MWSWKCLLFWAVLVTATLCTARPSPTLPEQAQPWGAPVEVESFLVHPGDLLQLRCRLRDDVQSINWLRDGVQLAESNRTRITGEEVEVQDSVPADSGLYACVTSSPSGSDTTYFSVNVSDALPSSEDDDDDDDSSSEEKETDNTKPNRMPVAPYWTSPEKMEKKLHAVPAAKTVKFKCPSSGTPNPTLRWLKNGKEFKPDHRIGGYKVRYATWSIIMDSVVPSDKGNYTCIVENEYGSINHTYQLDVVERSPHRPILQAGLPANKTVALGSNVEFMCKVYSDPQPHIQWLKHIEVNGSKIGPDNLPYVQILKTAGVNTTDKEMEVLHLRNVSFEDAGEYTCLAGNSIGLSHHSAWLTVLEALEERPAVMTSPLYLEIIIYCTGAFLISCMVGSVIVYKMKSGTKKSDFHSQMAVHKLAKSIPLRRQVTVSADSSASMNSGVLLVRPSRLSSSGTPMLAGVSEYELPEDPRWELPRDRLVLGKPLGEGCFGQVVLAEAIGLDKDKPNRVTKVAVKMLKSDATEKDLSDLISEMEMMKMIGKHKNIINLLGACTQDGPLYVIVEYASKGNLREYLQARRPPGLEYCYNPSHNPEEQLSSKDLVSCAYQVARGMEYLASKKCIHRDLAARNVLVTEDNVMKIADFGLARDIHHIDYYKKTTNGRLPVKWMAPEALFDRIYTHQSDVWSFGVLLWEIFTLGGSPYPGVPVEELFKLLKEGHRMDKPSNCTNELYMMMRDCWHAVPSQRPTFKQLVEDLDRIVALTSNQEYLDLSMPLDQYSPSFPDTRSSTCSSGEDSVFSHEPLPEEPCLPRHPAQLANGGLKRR
UniProt P27448, sequence (P27448 whole entry, looked up): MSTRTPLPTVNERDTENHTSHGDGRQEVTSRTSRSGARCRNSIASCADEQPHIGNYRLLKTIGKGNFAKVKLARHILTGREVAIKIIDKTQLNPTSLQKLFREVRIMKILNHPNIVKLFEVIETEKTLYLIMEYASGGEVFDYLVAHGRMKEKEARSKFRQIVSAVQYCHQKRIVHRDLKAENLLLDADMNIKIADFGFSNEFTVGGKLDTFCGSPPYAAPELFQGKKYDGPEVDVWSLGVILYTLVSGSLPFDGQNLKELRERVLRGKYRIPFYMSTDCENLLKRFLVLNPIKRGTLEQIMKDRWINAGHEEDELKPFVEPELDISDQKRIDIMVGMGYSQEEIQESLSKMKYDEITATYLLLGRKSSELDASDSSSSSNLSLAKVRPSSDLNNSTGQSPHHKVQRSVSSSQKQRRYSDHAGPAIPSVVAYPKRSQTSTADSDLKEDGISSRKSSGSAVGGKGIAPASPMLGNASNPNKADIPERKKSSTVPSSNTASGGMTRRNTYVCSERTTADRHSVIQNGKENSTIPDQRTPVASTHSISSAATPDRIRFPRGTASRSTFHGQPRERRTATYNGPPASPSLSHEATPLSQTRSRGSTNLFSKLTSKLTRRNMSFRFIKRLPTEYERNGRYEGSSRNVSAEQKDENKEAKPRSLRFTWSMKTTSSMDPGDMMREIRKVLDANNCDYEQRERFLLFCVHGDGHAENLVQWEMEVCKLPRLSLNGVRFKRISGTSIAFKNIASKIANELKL
FGFR4, sequence (P22455 whole entry, looked up): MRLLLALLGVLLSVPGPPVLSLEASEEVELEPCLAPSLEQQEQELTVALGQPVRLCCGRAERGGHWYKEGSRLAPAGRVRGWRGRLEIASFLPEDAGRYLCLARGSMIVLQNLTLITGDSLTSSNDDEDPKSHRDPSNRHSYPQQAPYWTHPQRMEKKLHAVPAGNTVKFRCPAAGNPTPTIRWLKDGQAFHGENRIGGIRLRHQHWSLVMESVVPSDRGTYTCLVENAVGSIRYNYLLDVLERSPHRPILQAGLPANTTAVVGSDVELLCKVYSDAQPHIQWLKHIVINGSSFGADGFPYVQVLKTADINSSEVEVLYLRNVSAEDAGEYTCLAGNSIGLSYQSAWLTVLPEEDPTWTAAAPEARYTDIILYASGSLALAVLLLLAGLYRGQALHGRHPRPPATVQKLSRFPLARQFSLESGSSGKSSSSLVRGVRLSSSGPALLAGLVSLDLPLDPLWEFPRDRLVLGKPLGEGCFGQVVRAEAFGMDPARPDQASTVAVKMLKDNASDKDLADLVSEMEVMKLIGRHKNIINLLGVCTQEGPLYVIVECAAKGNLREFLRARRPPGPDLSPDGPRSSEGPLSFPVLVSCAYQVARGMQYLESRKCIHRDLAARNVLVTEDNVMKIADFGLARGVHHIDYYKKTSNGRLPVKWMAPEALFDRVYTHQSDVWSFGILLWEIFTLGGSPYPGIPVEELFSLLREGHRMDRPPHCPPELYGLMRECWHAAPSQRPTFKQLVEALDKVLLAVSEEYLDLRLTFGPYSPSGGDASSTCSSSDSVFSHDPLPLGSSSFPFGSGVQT
PAK4, sequence (O96013 whole entry, looked up): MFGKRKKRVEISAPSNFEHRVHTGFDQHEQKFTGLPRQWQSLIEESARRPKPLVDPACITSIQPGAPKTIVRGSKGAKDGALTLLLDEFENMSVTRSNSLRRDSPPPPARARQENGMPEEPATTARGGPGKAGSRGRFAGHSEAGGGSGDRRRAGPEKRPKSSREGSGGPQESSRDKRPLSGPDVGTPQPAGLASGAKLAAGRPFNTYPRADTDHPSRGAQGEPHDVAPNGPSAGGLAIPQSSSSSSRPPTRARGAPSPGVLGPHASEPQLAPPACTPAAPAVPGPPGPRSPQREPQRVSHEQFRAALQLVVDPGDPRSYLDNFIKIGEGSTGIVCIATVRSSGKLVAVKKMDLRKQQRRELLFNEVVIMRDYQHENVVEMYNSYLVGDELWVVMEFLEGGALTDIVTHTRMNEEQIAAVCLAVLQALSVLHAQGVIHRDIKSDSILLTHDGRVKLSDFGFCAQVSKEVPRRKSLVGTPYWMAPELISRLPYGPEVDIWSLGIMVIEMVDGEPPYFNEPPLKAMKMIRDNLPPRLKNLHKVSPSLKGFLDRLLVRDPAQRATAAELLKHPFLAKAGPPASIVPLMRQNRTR
MAPK11, sequence (Q15759 whole entry): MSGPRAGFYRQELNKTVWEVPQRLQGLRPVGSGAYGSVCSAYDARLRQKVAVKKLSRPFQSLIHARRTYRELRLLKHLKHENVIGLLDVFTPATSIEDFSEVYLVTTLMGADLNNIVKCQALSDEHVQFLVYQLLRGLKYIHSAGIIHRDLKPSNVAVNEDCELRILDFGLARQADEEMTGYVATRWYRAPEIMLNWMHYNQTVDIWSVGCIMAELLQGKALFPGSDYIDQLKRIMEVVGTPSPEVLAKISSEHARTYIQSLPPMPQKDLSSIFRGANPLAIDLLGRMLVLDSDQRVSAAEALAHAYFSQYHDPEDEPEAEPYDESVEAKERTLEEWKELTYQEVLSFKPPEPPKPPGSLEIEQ

pIC50 (EPHB4)	pIC50 (UniProt Q8N4C8; cell material: Lysate mix)	pIC50 (UniProt P49840; cell material: Lysate mix)	pIC50 (MAPK11; cell material: Lysate mix)	pIC50 (FGFR4)	pIC50 (UniProt P27448; cell material: Lysate mix)	pIC50 (FGFR1; cell material: Lysate mix)	pIC50 (TGFBR1; cell material: Lysate mix)	pIC50 (PAK4; cell material: Lysate mix)	pIC50 (MAST3; cell material: Lysate mix)	pIC50 (HIPK1; cell material: Lysate mix)	pIC50 (UniProt Q8NI60; cell material: Lysate mix)	pIC50 (UniProt Q13043; cell material: Lysate mix)	pIC50 (MAPK11; cell material: Jurkat cells)	Structure (SMILES)	pIC50 (UniProt Q8N4C8; cell material: Jurkat cells)	pIC50 (UniProt Q8N4C8; cell material: Jurkat lysate)	pIC50 (UniProt P49840; cell material: Jurkat cells)	pIC50 (UniProt P49840; cell material: Jurkat lysate)	pIC50 (MAPK11; cell material: Jurkat lysate)	pIC50 (UniProt P27448; cell material: Jurkat cells)	pIC50 (UniProt P27448; cell material: Jurkat lysate)	pIC50 (FGFR1; cell material: Jurkat cells)	pIC50 (FGFR1; cell material: Jurkat lysate)	pIC50 (TGFBR1; cell material: Jurkat cells)	pIC50 (TGFBR1; cell material: Jurkat lysate)	pIC50 (PAK4; cell material: Jurkat cells)	pIC50 (PAK4; cell material: Jurkat lysate)	pIC50 (MAST3; cell material: Jurkat cells)	pIC50 (MAST3; cell material: Jurkat lysate)	pIC50 (HIPK1; cell material: Jurkat cells)	pIC50 (HIPK1; cell material: Jurkat lysate)	pIC50 (UniProt Q8NI60; cell material: Jurkat cells)	pIC50 (UniProt Q8NI60; cell material: Jurkat lysate)	pIC50 (UniProt Q13043; cell material: Jurkat cells)	pIC50 (UniProt Q13043; cell material: Jurkat lysate)
< 4.52	< 4.52	< 4.52	< 4.52	< 4.52	< 4.52	< 4.52	4.71	4.8	6.16	5.06	< 4.52	5.98	–	C#CCNC(=O)c1cc(Nc2cc(C)[nH]n2)nc(N2CCN(Cc3ccc(S(=O)(=O)F)cc3)CC2)n1	–	–	–	–	–	–	–	–	–	–	–	–	–	–	–	–	–	–	–	–	–
< 4.52	< 4.52	< 4.52	< 4.52	< 4.52	< 4.52	< 4.52	< 4.52	< 4.52	4.9	< 4.52	< 4.52	4.99	< 4.52	O=C(NCCNC(=O)c1cc(Nc2cc(C3CC3)[nH]n2)nc(N2CCN(Cc3ccc(S(=O)(=O)F)cc3)CC2)n1)OC1CC/C=C/CCC1 (centres undefined)	5.12	< 4.52	< 4.52	< 4.52	< 4.52	–	< 4.52	–	< 4.52	4.81	< 4.52	6.17	< 4.52	6.5	5.06	5.3	< 4.52	< 4.52	< 4.52	5.98	4.72
< 4.52	< 4.52	< 4.52	< 4.52	< 4.52	< 4.52	5.24	5.41	5.27	6.22	5.78	< 4.52	6.06	–	CCNC(=O)c1cc(Nc2cc(C3CC3)[nH]n2)nc(N2CCN(Cc3ccc(S(=O)(=O)F)cc3)CC2)n1	–	–	–	–	–	–	–	–	–	–	–	–	–	–	–	–	–	–	–	–	–
< 4.52	< 4.52	< 4.52	< 4.52	< 4.52	< 4.52	< 4.52	4.78	4.7	6.39	4.78	< 4.52	5.8	–	CCNC(=O)c1cc(Nc2cc(C)[nH]n2)nc(N2CCN(Cc3ccc(S(=O)(=O)F)cc3)CC2)n1	–	–	–	–	–	–	–	–	–	–	–	–	–	–	–	–	–	–	–	–	–
< 4.52	< 4.52	< 4.52	< 4.52	< 4.52	< 4.52	< 4.52	< 4.52	< 4.52	4.84	< 4.52	< 4.52	4.74	–	Cc1cc(Nc2cc(C(=O)NCCNC(=O)OC3CC/C=C/CCC3)nc(N3CCN(Cc4ccc(S(=O)(=O)F)cc4)CC3)n2)n[nH]1 (centres undefined)	–	–	–	–	–	–	–	–	–	–	–	–	–	–	–	–	–	–	–	–	–

Structure (SMILES)	pIC50 (EPHB4)	pIC50 (UniProt Q8N4C8; cell material: Lysate mix)	pIC50 (UniProt P49840; cell material: Lysate mix)	pIC50 (MAPK11; cell material: Lysate mix)	pIC50 (FGFR4)	pIC50 (UniProt P27448; cell material: Lysate mix)	pIC50 (FGFR1; cell material: Lysate mix)	pIC50 (TGFBR1; cell material: Lysate mix)	pIC50 (PAK4; cell material: Lysate mix)	pIC50 (MAST3; cell material: Lysate mix)	pIC50 (HIPK1; cell material: Lysate mix)	pIC50 (UniProt Q8NI60; cell material: Lysate mix)	pIC50 (UniProt Q13043; cell material: Lysate mix)	pIC50 (MAPK11; cell material: Jurkat cells)	pIC50 (UniProt Q8N4C8; cell material: Jurkat cells)	pIC50 (UniProt Q8N4C8; cell material: Jurkat lysate)	pIC50 (UniProt P49840; cell material: Jurkat cells)	pIC50 (UniProt P49840; cell material: Jurkat lysate)	pIC50 (MAPK11; cell material: Jurkat lysate)	pIC50 (UniProt P27448; cell material: Jurkat cells)	pIC50 (UniProt P27448; cell material: Jurkat lysate)	pIC50 (FGFR1; cell material: Jurkat cells)	pIC50 (FGFR1; cell material: Jurkat lysate)	pIC50 (TGFBR1; cell material: Jurkat cells)	pIC50 (TGFBR1; cell material: Jurkat lysate)	pIC50 (PAK4; cell material: Jurkat cells)	pIC50 (PAK4; cell material: Jurkat lysate)	pIC50 (MAST3; cell material: Jurkat cells)	pIC50 (MAST3; cell material: Jurkat lysate)	pIC50 (HIPK1; cell material: Jurkat cells)	pIC50 (HIPK1; cell material: Jurkat lysate)	pIC50 (UniProt Q8NI60; cell material: Jurkat cells)	pIC50 (UniProt Q8NI60; cell material: Jurkat lysate)	pIC50 (UniProt Q13043; cell material: Jurkat cells)	pIC50 (UniProt Q13043; cell material: Jurkat lysate)
C#CCNC(=O)c1cc(Nc2cc(C3CC3)[nH]n2)nc(N2CCN(Cc3ccc(S(=O)(=O)F)cc3)CC2)n1	< 4.52	< 4.52	< 4.52	< 4.52	< 4.52	< 4.52	4.81	5.46	5.58	6.56	6	< 4.52	6.8	–	5.72	< 4.52	5.04	< 4.52	< 4.52	5.81	< 4.52	5.72	< 4.52	5.75	4.84	5.78	5.19	6.54	6.27	6.08	5.37	< 4.52	< 4.52	6.35	5.89
